Experimental data from patent US20100022559A1, “BISOXIMES AS FUNGICIDES” (BAYER CROPSCIENCE AG, priority 2006, published 2010).

Assay: logP determination by HPLC on a reversed-phase column (C 18), EEC Directive 79/831 Annex V.A8
Type: physicochemical
Experimental: The stated logP values were determined in accordance with EEC Directive 79/831 Annex V.A8 by HPLC (high performance liquid chromatography) on a reversed-phase column (C 18). Temperature: 43° C.

| logP (value marked [b]) | logP (method marked [b] in Table 1) | logP (method marked [c] in Table 1) | SMILES | further results |
| --- | --- | --- | --- | --- |
| 2.66^[b] |  |  | CC(=NOCCCCON=C(C)c1cccc(C)n1)c1cc(C)ccn1 [Compound 373] |  |
| 5.54^[b] |  |  | CC(=NOCCCCON=C(C)c1cccc(C)n1)c1cccc(C(F)(F)F)c1 [Compound 375] |  |
| 3.11^[b] |  |  | CC(=NOCCCCON=C(C)c1cccc(C)n1)c1ccccn1 [Compound 376] |  |
| 2.41^[b] |  |  | CC(=NOCC(C)(C)CON=C(C)c1cccc(C)n1)c1ccc(C)nc1 [Compound 416] |  |
| 6.09^[b] |  |  | CC(=NOCC(C)CON=C(C)c1cccc(Cc2ccccc2)n1)c1cccc(C)n1 (stereo not shown) [Compound 420] |  |
| 6.51^[b] |  |  | CC(=NOCC(C)CON=C(C)c1cccc(CC(C)C)n1)c1cccc(C)n1 (stereo not shown) [Compound 423] |  |
| 5.31^[b] |  |  | CCCC(=NOCC(C)CON=C(C)c1cccc(C)n1)c1cccc(C)n1 (stereo not shown) [Compound 427] |  |
| 4.51^[b] |  |  | CCC(=NOCC(C)CON=C(C)c1cccc(C)n1)c1cccc(C)n1 (stereo not shown) [Compound 428] |  |
| 3.61^[b] |  |  | CC(=NOCC(C)CON=C(c1cccc(C)n1)C1CC1)c1cccc(C)n1 (stereo not shown) [Compound 429] |  |
| 3.51^[b] |  |  | CC(=NOCCCCCCON=C(C)c1cc(C)cc(C)n1)c1cccc(C)n1 [Compound 460] |  |
| 2.55^[b] |  |  | C=C(CON=C(C)c1cccc(C)n1)CON=C(C)c1cc(C)cc(C)n1 [Compound 474] |  |
| 5.42^[b] |  |  | C=C(CON=C(C)c1cccc(C)n1)CON=C(C)c1cccc(CCC)n1 [Compound 477] |  |
| 6.22^[b] |  |  | CC(=NOCC(C)(C)CON=C(C)c1cccc(C)n1)c1cccc(Cl)c1 [Compound 483] |  |
| 5.84^[b] |  |  | CC(=NOCC(C)(C)CON=C(C)c1ccc(Cl)s1)c1cccc(C)n1 [Compound 486] |  |
| 3.33^[b] |  |  | CC(=NOCC(C)(C)CON=C(C)c1cc(C)cc(C)n1)c1cccc(C)n1 [Compound 487] |  |
| 6.87^[b] |  |  | CC(=NOCC(C)(C)CON=C(C)c1cccc(C(C)C)n1)c1cccc(C)n1 [Compound 491] |  |
| 4.80^[b] |  |  | COc1cccc(C(C)=NOCC(C)CON=C(C)c2cccc(C)n2)c1 (stereo not shown) [Compound 495] |  |
| 2.76^[b] |  |  | CC(=NOCC(C)CON=C(C)c1cc(C)cc(C)n1)c1cccc(C)n1 (stereo not shown) [Compound 499] |  |
| 3.37^[b] |  |  | COc1cc(C)nc(C(C)=NOCC(C)CON=C(C)c2cccc(C)n2)c1 (stereo not shown) [Compound 501] |  |
| 5.84^[b] |  |  | CCCc1cccc(C(C)=NOCC(C)CON=C(C)c2cccc(C)n2)n1 (stereo not shown) [Compound 502] |  |
| 6.29^b] |  |  | CC(=NOCC(C)CON=C(C)c1cccc(C(C)C)n1)c1cccc(C)n1 (stereo not shown) [Compound 504] |  |
| 3.39^[b] |  |  | CC(=NOCCCCCCON=C(C)c1nccc(C)n1)c1cccc(C)n1 [Compound 509] |  |
| 2.75^[b] |  |  | CC(=NOCCC(C)ON=C(C)c1ccc(C)c(C)n1)c1ccc(C)c(C)n1 (stereo not shown) [Compound 519] | logP (value marked [c]): 6.27^[c] |
|  | 6.47^[b] |  | CC(=NOCC(C)(C)CON=C(CC(C)C)c1cccc(C)n1)c1cccc(C)n1 [Compound 538] |  |

| logP (value marked [b]) | logP (method marked [b] in Table 1) | logP (method marked [c] in Table 1) | SMILES | further results |
| --- | --- | --- | --- | --- |
|  | 3.04^[b] |  | CC(=NOC/C=C\CON=C(C)c1ccccn1)c1ccccn1 [Compound 541] |  |
|  |  | 7.36^[c] | CCCc1nc(C(C)=NOCC(C)CON=C(C)c2ccc(C)c(CCC)n2)ccc1C (stereo not shown) [Compound 550] |  |
|  | 1.56^[b] | 4.91^[c] | COC(CON=C(C)c1cc(C)cc(C)n1)CON=C(C)c1cc(C)cc(C)n1 (stereo not shown) [Compound 552] |  |
|  | 3.87^[b] | 7.36^[c] | CC(=NOCC1(CON=C(C)c2cc(C)cc(C)n2)CCCCC1)c1cc(C)cc(C)n1 [Compound 553] |  |
|  | 2.96^[b] | 6.33^[c] | CC(=NOCC(CON=C(C)c1cc(C)cc(C)n1)c1ccccc1)c1cc(C)cc(C)n1 (stereo not shown) [Compound 554] |  |
|  | 3.22^[b] | 7.15^[c] | CCCC(CON=C(C)c1cc(C)cc(C)n1)CON=C(C)c1cc(C)cc(C)n1 (stereo not shown) [Compound 555] |  |
|  | 2.11^[b] | 5.97^[c] | CC(=NOCC1(CON=C(C)c2cc(C)cc(C)n2)CC1)c1cc(C)cc(C)n1 [Compound 556] |  |
|  | 2.39^[b] | 6.63^[c] | CC(=NOC(C)CC(C)ON=C(C)c1cc(C)cc(C)n1)c1cc(C)cc(C)n1 (stereo not shown) [Compound 557] |  |
|  | 2.00^[b] | 6.11^[c] | CC(=NOCCC(C)ON=C(C)c1cc(C)cc(C)n1)c1cc(C)cc(C)n1 (stereo not shown) [Compound 558] |  |
|  | 3.60^[b] | 7.36^[c] | CC(=NOCC(CON=C(C)c1cc(C)cc(C)n1)C(C)(C)C)c1cc(C)cc(C)n1 (stereo not shown) [Compound 559] |  |
|  | 6.09^[b] | 7.15^[c] | CC(=NOCC1(CON=C(C)c2cccc(C)n2)CCCCC1)c1cccc(C)n1 [Compound 561] |  |
|  | 2.90^[b] | 6.93^[c] | CC(=NOCC1(CON=C(C)c2cc(C)cc(C)n2)CCC1)c1cc(C)cc(C)n1 [Compound 562] |  |
|  |  |  | CC(=NOCC(C)(C)CON=C(C)c1nc2ccccc2[nH]1)c1nc2ccccc2[nH]1 [Compound 573] | logP (method marked [a] in Table 1): 2.10^[a] |
|  |  |  | CC(=NOCC(C)(C)CON=C(C)c1cccc(-c2ccccc2)n1)c1cccc(-c2ccccc2)n1 [Compound 575] | logP (method marked [a] in Table 1): 7.36^[a] |
|  | 5.01^[b] | 7.05^[c] | CC(=NOCC(CON=C(C)c1ccc(C)c(C)n1)Cc1ccccc1)c1ccc(C)c(C)n1 (stereo not shown) [Compound 581] |  |
|  | 3.62^[b] | 6.97^[c] | CC(=NOCC(CON=C(C)c1cc(C)cc(C)n1)Cc1ccccc1)c1cc(C)cc(C)n1 (stereo not shown) [Compound 582] |  |
|  | 5.37^b] | 6.34^[c] | CC(=NOCC(CON=C(C)c1cccc(C)n1)Cc1ccccc1)c1cccc(C)n1 (stereo not shown) [Compound 583] |  |
|  | 2.87^b] | 4.76^[c] | CCOC(CON=C(C)c1cccc(C)n1)CON=C(C)c1cccc(C)n1 (stereo not shown) [Compound 586] |  |
|  | 5.49^b] | 7.33^[c] | CC(=NOCC1(CON=C(C)c2cccc(C)n2)CCCC1)c1cccc(C)n1 [Compound 587] |  |
|  | 4.92^[b] | 7.36^[c] | CC(=NOCC1(CON=C(C)c2ccc(C)c(C)n2)CCCC1)c1ccc(C)c(C)n1 [Compound 588] |  |
|  | 3.35^[b] | 7.36^[c] | CC(=NOCC1(CON=C(C)c2cc(C)cc(C)n2)CCCC1)c1cc(C)cc(C)n1 [Compound 589] |  |
|  |  |  | CC(=NOCC(C)(C)CON=C(C)c1ccc2c(n1)CCCCC2)c1ccc2c(n1)CCCCC2 [Compound 592] | logP (method marked [a] in Table 1): 6.04^[a] |
|  |  |  | CC(=NOCC1(CON=C(C)c2cccc(C)n2)CC(c2ccccc2)=NO1)c1cccc(C)n1 (stereo not shown) [Compound 593] | logP (method marked [a] in Table 1): 3.74^[a] |
|  | 1.60^[b] |  | CC1=NOC(CO/N=C(\C)c2cc(C)cc(C)n2)(CO/N=C(\C)c2cc(C)cc(C)n2)C1 [Compound 637] |  |

| logP (value marked [b]) | logP (method marked [b] in Table 1) | logP (method marked [c] in Table 1) | SMILES | further results |
| --- | --- | --- | --- | --- |
|  | 1.88^[b] |  | CCC1=NOC(CON=C(C)c2cc(C)cc(C)n2)(CON=C(C)c2cc(C)cc(C)n2)C1 (stereo not shown) [Compound 639] |  |
|  | 2.54^[b] |  | Cc1cccc(C=NOCCCON=Cc2cccc(C)n2)n1 [Compound 669] |  |
|  | 4.38^[b] | 5.97^[c] | CCC(CON=C(C)c1cccc(C)n1)CON=C(C)c1cccc(C)n1 (stereo not shown) [Compound 677] |  |
|  | 3.89^[b] | 6.79^[c] | CCC(CON=C(C)c1ccc(C)c(C)n1)CON=C(C)c1ccc(C)c(C)n1 (stereo not shown) [Compound 678] |  |
|  | 2.61^[b] |  | CCC(CON=C(C)c1cc(C)cc(C)n1)CON=C(C)c1cc(C)cc(C)n1 (stereo not shown) [Compound 679] |  |
|  | 5.03^[b] | 6.40^[c] | CC(=NOCC(CON=C(C)c1cccc(C)n1)C(C)C)c1cccc(C)n1 (stereo not shown) [Compound 680] |  |
|  | 4.57^[b] | 7.18^[c] | CC(=NOCC(CON=C(C)c1ccc(C)c(C)n1)C(C)C)c1ccc(C)c(C)n1 (stereo not shown) [Compound 681] |  |
|  | 3.12^[b] | 7.09^[c] | CC(=NOCC(CON=C(C)c1cc(C)cc(C)n1)C(C)C)c1cc(C)cc(C)n1 (stereo not shown) [Compound 682] |  |
|  |  |  | CCOc1cc(C)nc(C(C)=NOCC(C)CON=C(C)c2cc(OCC)cc(C)n2)c1 (stereo not shown) [Compound 683] | logP (method marked [a] in Table 1): 1.71^[a] |
|  | 5.65^[b] |  | CC#Cc1cccc(C(C)=NOCC(C)CON=C(C)c2cccc(C#CC)n2)n1 (stereo not shown) [Compound 686] |  |
|  | 5.75^[b] |  | CC(=NOCC(C)CON=C(C)c1cccc(C(=O)c2ccccc2)n1)c1cccc(C)n1 (stereo not shown) [Compound 690] |  |
|  | 2.61^[b] | 6.02^[c] | CC(=NOCC1(CON=C(C)c2ccc(C)c(C)n2)CC1)c1cc(C)cc(C)n1 [Compound 695] |  |
|  | 3.15^[b] | 6.70^[c] | CC(=NOCC(C)(C)CON=C(C)c1ccc(C)c(C)n1)c1cc(C)cc(C)n1 [Compound 697] |  |
|  | 5.00^[b] |  | CC(=NOCC(C)(C)CON=C(C)c1ccc(C)o1)c1ccc(C)o1 [Compound 698] |  |
|  | 2.53^[b] | 5.33^[c] | CC(=NOCCCON=C(C)c1ccc(C)c(C)n1)c1cccc(C)n1 [Compound 699] |  |
|  | 3.12^[b] |  | CC(=NOCC#CCON=C(C)c1cccc(C)n1)c1cccc(C)n1 [Compound 706] |  |
|  | 3.76^[b] |  | CC(=NOCc1ccccc1CON=C(C)c1ccccn1)c1ccccn1 [Compound 725] |  |
|  | 2.49^[b] | 4.33^[c] | CC(=NOCc1cccc(CON=C(C)c2cccc(C)n2)n1)c1cccc(C)n1 [Compound 740] |  |
| 1.62^[b] |  |  | Cc1cc(C)nc(C(N)=NOC/C=C/CON=C(N)c2nc(C)cc(C)n2)n1 [Compound 772] |  |
| 2.89^[b] |  |  | CC(=NOC/C=C/CON=C(C)c1cccc(C)n1)c1cccc(C)n1 [Compound 777] |  |
| 6.65^[b] |  |  | CC[Si](CC)(CON=C(C)c1cccc(C)n1)CON=C(C)c1cccc(C)n1 [Compound 782] | logP (value marked [a]): 6.65^[a]; logP (value marked [c]): 7.01^[c] |
|  |  |  | CC(=NOCC(C)CON=C(C)c1cccc(N2CCCC2)n1)c1cccc(N2CCCC2)n1 (stereo not shown) [Compound 783] | logP (value marked [a]): 2.51^[a] |
|  |  |  | C=C(CON=C(C#N)c1cccc(C)n1)CON=C(C#N)c1cccc(C)n1 [Compound 784] | logP (value marked [a]): 3.84^[a] |
| 5.98^[b] |  |  | CC[Si](C)(CON=C(C)c1cccc(C)n1)CON=C(C)c1cccc(C)n1 [Compound 785] | logP (value marked [a]): 5.98^[a]; logP (value marked [c]): 6.52^[c] |
